According to ChEMBL document CHEMBL1152675, “3,4-Dihydropyrimido(1,2-a)indol-10(2H)-ones as potent non-peptidic inhibitors of caspase-3” (Bioorg Med Chem, 2009):

experiment: Chemical stability in 90% deionized water after 24 hrs by NMR spectroscopy; assay type: physicochemical; details: read-out: Stability

| remaining at 24 h [%] | Structure (SMILES) |
| --- | --- |
| 89 | O=C1C2=NCC3(CCCC3)CN2c2ccc(S(=O)(=O)N3CCC[C@H]3COc3ccccc3)cc21 |
| 87 | COC[C@@H]1CCCN1S(=O)(=O)c1ccc2c(c1)C(=O)C1=NCC3(CCCC3)CN12 |
| 72 | O=C1C2=NCC3(CCCCC3)CN2c2ccc(S(=O)(=O)N3CCC[C@H]3COc3ccccc3)cc21 |
| 69 | O=C1C2=NCC3(CCC3)CN2c2ccc(S(=O)(=O)N3CCC[C@H]3COc3ccccc3)cc21 |
| 74 | COC[C@@H]1CCCN1S(=O)(=O)c1ccc2c(c1)C(=O)C1=NCC3(CCC3)CN12 |
| 71 | COC[C@@H]1CCCN1S(=O)(=O)c1ccc2c(c1)C(=O)C1=NCC3(CCCCC3)CN12 |
